Experimental data as given in ChEMBL document CHEMBL3396963, “Scaffold hopping: exploration of acetanilide-containing uracil analogues as potential NNRTIs” (Bioorg Med Chem, 2015).
Calls of active or inactive are those of the source. The rule behind the calls is not given here.

Legend:
[1] = biological target: T1, Human immunodeficiency virus type 1 reverse transcriptase (Human immunodeficiency virus 1, UniProt Q72547); test: Inhibition of HIV1 ribonuclease H pre-incubated with compound before enzyme addition using RNA/DNA heteroduplex and measured after 60 mins by picogreen based spectrofluorometry
[2] = biological target: Human immunodeficiency virus type 1 reverse transcriptase (Human immunodeficiency virus 1, UniProt Q72547, K103N); test: Inhibition of HIV1 reverse transcriptase K103N mutant using radioactively-labeled […] substrate and activated DNA as template-primer complex
[3] = test system: Human immunodeficiency virus 1; test: Antiviral activity against HIV1 3B infected in human MT4 cells exposed to MT4 cell CC50 level of compound added after 1 to 25 hrs post virus infection following 1 hr virus adsorption period assessed as assessed as inhibition of virus-induced cytopathogenic effect; type: functional, organism-based
[4] = biological target: Human immunodeficiency virus type 1 reverse transcriptase (Human immunodeficiency virus 1, UniProt Q72547, K103N/Y181C); test: Inhibition of HIV1 reverse transcriptase K103N/Y181C mutant using radioactively-labeled […] substrate and activated DNA as template-primer complex
[5] = biological target: Human immunodeficiency virus type 1 reverse transcriptase (Human immunodeficiency virus 1, UniProt Q72547, Y181C); test: Inhibition of HIV1 reverse transcriptase Y181C mutant using radioactively-labeled […] substrate and activated DNA as template-primer complex
[6] = biological target: Human immunodeficiency virus type 1 reverse transcriptase (Human immunodeficiency virus 1, UniProt Q72547, L100I); test: Inhibition of HIV1 reverse transcriptase L100I mutant using radioactively-labeled […] substrate and activated DNA as template-primer complex
[7] = Selectivity index, ratio of CC50 for human MT4 cells to EC50 for HIV1 3B infected in human MT4 cells; type: toxicity, cell-based; conditions: HIV-1 3B infected MT4 cells, read-out: Ratio CC50/EC50
[8] = test system: Human immunodeficiency virus 1; test: Antiviral activity against HIV1 3B expressing reverse transcriptase K103N/Y181C mutant infected in human MT4 cells assessed as inhibition of virus-induced cytopathogenic effect; type: functional, organism-based
[9] = test system: Human immunodeficiency virus 1; test: Antiviral activity against HIV1 3B infected in human MT4 cells assessed as inhibition of virus-induced cytopathogenic effect; type: functional, organism-based; conditions: Human immunodeficiency virus 1, 3B
[10] = Cytotoxicity against human MT4 cells assessed as reduction in cell viability; type: cell-based
[11] = test system: Human immunodeficiency virus 1; test: Antiviral activity against HIV1 3B infected in human MT4 cells exposed to MT4 cell CC50 level of compound added after 1 to 25 hrs post virus infection following 1 hr virus adsorption period assessed as inhibition of virus production measured at 31 hrs post infection by p24 ELISA method; type: functional, organism-based
[12] = biological target: T1, Human immunodeficiency virus type 1 reverse transcriptase; test: Inhibition of HIV1 recombinant wild type reverse transcriptase p66/p51 pre-incubated with compound before enzyme addition using poly(rA) template and measured after 40 mins by picogreen based spectrofluorometry
[13] = biological target: Human immunodeficiency virus type 1 reverse transcriptase (Human immunodeficiency virus 1, UniProt Q72547, G190A); test: Inhibition of HIV1 reverse transcriptase G190A mutant using radioactively-labeled […] substrate and activated DNA as template-primer complex
[14] = biological target: Human immunodeficiency virus type 1 reverse transcriptase (Human immunodeficiency virus 1, UniProt Q72547, V106A); test: Inhibition of HIV1 reverse transcriptase V106A mutant using radioactively-labeled […] substrate and activated DNA as template-primer complex

Ki [12] | Structure (SMILES) | IC50 ([1]; read-out: IC50) | Ki [2] | inhibition [3] | Ki [4] | Ki [5] | Ki [6] | selectivity ratio [7] | inhibition [8] | EC50 [9] | CC50 [10] | inhibition [11] | IC50 [12] | Ki [13] | Ki [14] | IC50 [1]
> 100 µM | Cn1c(=O)ccn(Cc2ccccc2OCC(=O)Nc2ccccc2Cl)c1=O |  |  |  |  |  |  | < 1 |  | > 141 µM | 141 µM |  |  |  |  | 
> 100 µM | Cn1c(=O)c(F)cn(Cc2ccccc2OCC(=O)Nc2ccccc2Cl)c1=O |  |  |  |  |  |  | < 1 |  | > 30.3 µM | 30.3 µM |  |  |  |  | 
> 100 µM | CCCn1c(=O)ccn(Cc2ccccc2OCC(=O)Nc2ccccc2Cl)c1=O |  |  |  |  |  |  | < 1 |  | > 25.4 µM | 25.4 µM |  |  |  |  | 
 | Cc1cc(C)cc(Cn2c(=O)ccn(CC(=O)Nc3ccccc3Cl)c2=O)c1 |  |  | inactive |  |  |  | 17 | inactive | 1.71 µM | 28.5 µM | inactive | 15.7 µM |  |  | Not Active
 | Cc1cc(C)cc(Cn2c(=O)ccn(CC(=O)Nc3ccc(Cl)cc3)c2=O)c1 |  |  | inactive |  |  |  | 11 | inactive | 7.29 µM | 77.5 µM | inactive | 62.9 µM |  |  | Not Active
> 100 µM | Cc1cn(Cc2ccccc2OCC(=O)Nc2ccccc2Cl)c(=O)n(C)c1=O |  |  |  |  |  |  | < 1 |  | > 14.8 µM | 14.8 µM |  |  |  |  | 
> 100 µM | Cc1ccccc1NC(=O)COc1ccccc1Cn1ccc(=O)n(C)c1=O |  |  |  |  |  |  | < 1 |  | > 152 µM | 152 µM |  |  |  |  | 
> 100 µM | Cn1c(=O)ccn(Cc2ccccc2OCC(=O)Nc2ccccc2)c1=O |  |  |  |  |  |  | < 1 |  | > 153 µM | 153 µM |  |  |  |  | 
> 100 µM | Cn1c(=O)ccn(Cc2ccccc2OCC(=O)Nc2ccc(Cl)cc2)c1=O |  |  |  |  |  |  | < 1 |  | > 100 µM | 100 µM |  |  |  |  | 
 | O=C1Nc2ccc(Cl)cc2[C@@](C#CC2CC2)(C(F)(F)F)O1 [EFAVIRENZ] |  |  |  |  |  |  |  |  |  | > 6 µM |  |  |  |  | 
 | Cc1cc(C)cc(Cn2c(=O)ccn(CC(=O)NCc3ccccc3)c2=O)c1 |  |  | inactive |  |  |  | < 1 | inactive | > 191 µM | 191 µM | inactive | 194 µM |  |  | Not Active
 | COc1ccccc1NC(=O)Cn1ccc(=O)n(Cc2cc(C)cc(C)c2)c1=O |  |  | inactive |  |  |  | 16 | inactive | 14.5 µM | 227 µM | inactive | 211 µM |  |  | Not Active
 | Cc1cc(C)cc(Cn2c(=O)ccn(CC(=O)Nc3cccc(Cl)c3)c2=O)c1 |  |  | inactive |  |  |  | 6 | inactive | 29.5 µM | 167 µM | inactive | 114 µM |  |  | Not Active
> 100 µM | Cn1c(=O)c(Cl)cn(Cc2ccccc2OCC(=O)Nc2ccccc2Cl)c1=O |  |  |  |  |  |  | < 1 |  | > 9.37 µM | 9.37 µM |  |  |  |  | 
 | Cc1cc(C)cc(Cn2c(=O)ccn(CC(=O)Nc3ccccc3C)c2=O)c1 |  |  | inactive |  |  |  | 38 | inactive | 7.68 µM | 292 µM | inactive | 68.8 µM |  |  | Not Active
> 100 µM | Cn1c(=O)ccn(Cc2ccccc2OCC(=O)Nc2cc(Cl)ccc2Cl)c1=O |  |  |  |  |  |  | < 1 |  | > 29.5 µM | 29.5 µM |  |  |  |  | 
 | Cc1cc(C)cc(Cn2c(=O)ccn(CC(=O)Nc3ccccc3)c2=O)c1 |  |  | inactive |  |  |  | 25 | inactive | 9.68 µM | 242 µM | inactive | 79.3 µM |  |  | Not Active
 | Cc1cc(C)cc(Cn2c(=O)ccn(CC(=O)Nc3cccc(C)c3C)c2=O)c1 |  |  | inactive |  |  |  | 8 | inactive | 35.8 µM | 276 µM | inactive | > 300 µM |  |  | Not Active
> 100 µM | C=CCn1c(=O)ccn(Cc2ccccc2OCC(=O)Nc2ccccc2Cl)c1=O |  |  |  |  |  |  | < 1 |  | > 30.6 µM | 30.6 µM |  |  |  |  | 
 | O=C(Cn1ccc(=O)n(Cc2cccc3ccccc23)c1=O)Nc1ccccc1Cl |  |  | inactive |  |  |  | 26 | inactive | 7.94 µM | 207 µM | inactive | 44.5 µM |  |  | Not Active
 | Cc1ccnc2c1NC(=O)c1cccnc1N2C1CC1 [NEVIRAPINE] |  |  |  |  |  |  |  |  |  | > 15 µM |  |  |  |  | 
 | Cc1cc(Br)cc(Cn2c(=O)ccn(CC(=O)Nc3ccccc3)c2=O)c1 |  |  | inactive |  |  |  | 17 | inactive | 2.01 µM | 33.1 µM | inactive | 12.1 µM |  |  | Not Active
> 100 µM | Cn1c(=O)ccn(Cc2ccccc2OCC(=O)Nc2cccc(Cl)c2)c1=O |  |  |  |  |  |  | < 1 |  | > 288 µM | 288 µM |  |  |  |  | 

Structure (SMILES) | Ki [12] | IC50 ([1]; read-out: IC50) | Ki [2] | inhibition [3] | Ki [4] | Ki [5] | Ki [6] | selectivity ratio [7] | inhibition [8] | EC50 [9] | CC50 [10] | inhibition [11] | IC50 [12] | Ki [13] | Ki [14] | IC50 [1]
O=C(Cn1ccc(=O)n(Cc2cc(Cl)cc(Cl)c2)c1=O)Nc1ccccc1Cl | 4.5 µM | 149 µM | 63.3 µM | inactive | 69.9 µM | 15.4 µM | 15.9 µM | 10 | inactive | 3.26 µM | 31.1 µM | inactive | 12.7 µM | 20 µM | 67.6 µM | 
